# Laboratory results as given in patent publication US6476187B1, “Methods and reagents for discovering and using mammalian melanocortin receptor agonists and antagonists to modulate feeding behavior in animals” (Oregon Health & Sciences University, priority 1992, dated 2002).
# Residues, ends and D or L forms follow the SMILES beside them.
# B1: agouti peptide: murine agouti peptide produced using a baculovirus system, approximately 60% pure (protein)
# chain: HLALEETLGDDRSLRSNSSMNSLDFSSVSIVALNKKSKKISRKEAEKRKRSSKKKASMKKVARPPPPSPCVATRDSCKPPAPACCDPCASCQCRFFGSACTCRVLNPNC
# Experiments:
# [1] = target: T1, murine αMSH receptor (MC-1) (Mus musculus, UniProt Q01727); test: intracellular cAMP accumulation in 293 cells transfected with mouse αMSH receptor; format: cell-based; settings: 293 cells expressing murine αMSH receptor
# T1 construct: excising the entire coding region of the αMSH^R (MC-1) cDNA insert comprising a 2.1 kb fragment; expressed in transfected cells; host or cells: human 293 cells, pcDNAI/neo, G418-selected
# T1 sequence (Q01727 whole entry, the tested form may be a part): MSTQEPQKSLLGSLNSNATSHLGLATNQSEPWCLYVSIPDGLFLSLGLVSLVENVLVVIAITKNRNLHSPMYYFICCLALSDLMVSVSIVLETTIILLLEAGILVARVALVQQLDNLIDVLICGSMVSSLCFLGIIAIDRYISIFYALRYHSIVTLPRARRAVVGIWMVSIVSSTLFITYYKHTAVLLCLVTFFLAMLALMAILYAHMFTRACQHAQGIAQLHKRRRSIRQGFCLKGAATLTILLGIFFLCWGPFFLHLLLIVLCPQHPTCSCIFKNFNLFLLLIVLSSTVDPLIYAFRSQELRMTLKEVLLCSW
# Experimental: After transfection, cells were cultured in DMEM media supplemented with 10% calf serum in a 3% CO2 atmosphere at 37° C. Selection was performed with neomycin (G418; GIBCO) at a concentration of 1000 μg/mL; selection was started 72 hr after transfection and continued for 3 weeks.
# Following hormone treatment, the cells were washed twice with phosphate buffered saline and intracellular cAMP extracted by lysing the cells with 1 mL of 60% ethanol.
# [2] = target: T2, rat MC3-R (Rattus norvegicus, UniProt P32244); test: intracellular cAMP production in 293 cells expressing MC3-R; format: cell-based; settings: 1 h at 37° C.
# T2 construct: The entire coding region of the MC-3 receptor cDNA insert; expressed in transfected cells; host or cells: human 293 cells, pcDNA/neo I, G418-selected
# T2 sequence (P32244 whole entry): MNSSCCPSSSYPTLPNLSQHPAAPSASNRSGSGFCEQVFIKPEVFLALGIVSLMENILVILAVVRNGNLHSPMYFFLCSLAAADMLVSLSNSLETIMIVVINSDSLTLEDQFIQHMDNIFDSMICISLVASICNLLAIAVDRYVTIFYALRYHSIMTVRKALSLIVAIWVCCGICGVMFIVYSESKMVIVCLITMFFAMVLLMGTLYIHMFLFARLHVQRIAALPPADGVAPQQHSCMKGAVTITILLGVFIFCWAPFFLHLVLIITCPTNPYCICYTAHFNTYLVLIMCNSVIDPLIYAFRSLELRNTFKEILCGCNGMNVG
# Experimental: cAMP production assays as described above were also used to analyze expression of MC3-R in cells transfected with the expression vectors described herein as follows. […] Following hormone treatment, the cells were washed twice with phosphate buffered saline and intracellular cAMP extracted by lysing the cells with 1 mL of 60% ethanol.
# [3] = target: T3, rat MC-3 receptor (Rattus norvegicus, UniProt P32244); test: competition of [Nle4,D-Phe7]α-MSH binding to rat MC-3 receptor; settings: peptide about 60% pure; IC50 could not be determined
# T3 construct: The entire coding region of the MC-3 receptor cDNA insert; expressed in transfected cells; host or cells: human 293 cells, pcDNA/neo I, G418-selected
# T3 sequence (P32244 whole entry): as above
# From the text: […]. In these experiments, murine agouti peptide was produced using a baculovirus system as described by Lu et al., (1994, Nature 371: 799-802), with the modification that the agouti peptide was purified from baculovirus supernatants by 0.6M NaCl step elution from an EconoS cation exchange column (BioRad). Agouti peptide used in these assays was approximately 60% pure.
# [4] = target: human MC-4-R (Homo sapiens, UniProt P32245); settings: Lu et al., 1994; cited from earlier work
# Sequence of human MC-4-R (P32245 whole entry): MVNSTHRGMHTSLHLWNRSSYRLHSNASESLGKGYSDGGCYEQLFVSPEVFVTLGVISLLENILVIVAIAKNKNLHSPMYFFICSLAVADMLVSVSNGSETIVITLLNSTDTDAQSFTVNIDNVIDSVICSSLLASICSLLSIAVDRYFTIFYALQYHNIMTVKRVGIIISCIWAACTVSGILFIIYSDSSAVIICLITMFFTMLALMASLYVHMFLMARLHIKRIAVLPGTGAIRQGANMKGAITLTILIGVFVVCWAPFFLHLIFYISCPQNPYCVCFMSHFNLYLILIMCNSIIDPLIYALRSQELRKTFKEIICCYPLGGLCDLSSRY
molecule,measurement,setting,value
CSCC[C@H](NC(=O)[C@H](CCCNC(=N)N)NC(=O)[C@H](Cc1ccc(O)cc1)NC(=O)[C@@H]1CCCN1C(=O)CNC(=O)[C@H](CCC(=O)O)NC(=O)[C@H](CC(=O)O)NC(=O)[C@H](CCCCN)NC(=O)[C@H](CCCCN)NC(=O)[C@H](CCC(=O)O)NC(=O)[C@H](C)N)C(=O)N[C@@H](CCC(=O)O)C(=O)N[C@@H](Cc1c[nH]cn1)C(=O)N[C@@H](Cc1ccccc1)C(=O)N[C@@H](CCCNC(=N)N)C(=O)N[C@@H](Cc1c[nH]c2ccccc12)C(=O)NCC(=O)N[C@@H](CO)C(=O)N1CCC[C@H]1C(=O)N1CCC[C@H]1C(=O)N[C@@H](CCCCN)C(=O)N[C@@H](CC(=O)O)C(=O)O [βMSH],EC50 (intracellular cAMP),[1]; 45 min at 37° C.,comparable to αMSH
CSCC[C@H](NC(=O)[C@@H](NC(=O)[C@@H](N)Cc1ccc(O)cc1)C(C)C)C(=O)NCC(=O)N[C@@H](Cc1c[nH]cn1)C(=O)N[C@@H](Cc1ccccc1)C(=O)N[C@@H](CCCNC(=N)N)C(=O)N[C@@H](Cc1c[nH]c2ccccc12)C(=O)N[C@@H](CC(=O)O)C(=O)N[C@@H](CCCNC(=N)N)C(=O)N[C@@H](Cc1ccccc1)C(=O)NCC(=O)N[C@@H](CCCNC(=N)N)C(=O)N[C@@H](CCCNC(=N)N)C(=O)N[C@@H](CC(N)=O)C(=O)NCC(=O)N[C@@H](CO)C(=O)N[C@@H](CO)C(=O)N[C@@H](CO)C(=O)N[C@@H](CO)C(=O)NCC(=O)N[C@H](C(=O)NCC(=O)NCC(=O)N[C@@H](C)C(=O)N[C@@H](C)C(=O)N[C@@H](CCC(N)=O)C(=O)O)C(C)C [γ3-MSH] (H-YVMGHFRWDRFGRRNGSSSSGVGGAAQ-OH; N-terminus and C-terminus assumed),EC50,[2],6 nM
"CSCC[C@H](NC(=O)[C@@H](NC(=O)[C@@H](N)Cc1ccc(O)cc1)C(C)C)C(=O)NCC(=O)N[C@@H](Cc1c[nH]cn1)C(=O)N[C@@H](Cc1ccccc1)C(=O)N[C@@H](CCCNC(=N)N)C(=O)N[C@@H](Cc1c[nH]c2ccccc12)C(=O)N[C@@H](CC(=O)O)C(=O)N[C@@H](CCCNC(=N)N)C(=O)N[C@@H](Cc1ccccc1)C(N)=O [γ-MSH, γ-melanocyte stimulating hormone]",activity in elevating intracellular cAMP,[1],little or no activity
B1,"competition of [Nle4,D-Phe7]α-MSH binding",[3],Specific competition
same,competition of αMSH activation,[4],Specific competition
